According to patent publication US20260176320A1, “MODULATORS OF G-PROTEIN COUPLED RECEPTORS” (priority 2018, published 2026):
Like-named read-outs stand apart in the source and are kept apart here.

How the values were obtained:
[1] = molecular target: T1, GLP-1R (Homo sapiens, UniProt P43220); test: HitHunter cAMP assay (GLP-1R); assay type: cell-based; conditions: cAMP; for Emax: read-out: (Emax) GLP-1R; for EC50: read-out: EC50 GLP-1R/nM
Outline: (§1)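 Duplicate 22-point, 2-fold agonist titrations applied to receptor-expressing suspension cells in IBMX-containing HBSS; 30 min RT stimulation. Read: luminescent cAMP immunocompetition after O/N dark incubation.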

[2] = system: mice; test: Glucose tolerance test (GTT); assay type: in vivo, mouse; conditions: 24 h GTT, s.c., dose range 2-5 nmol/kg, percent of vehicle
Method: Freestyle Lite glucometer and strips; compounds to be tested; sterilized glucose solution 200 mg/ml.
Compounds were diluted in PBS from the 1 mM DMSO stocks right before injection. Body weight and baseline blood glucose level for each mouse were measured. Tails were snipped using sterile scissors; blood from tails was used to measure glucose. For 0.25 h GTT, mice were fasted for 5-6 h and injected with compound subcutaneously 15 mins before glucose injection. For 4 h GTT, mice were fasted O/N for 16 h and injected with compound subcutaneously 4 h before glucose injection. For 16 h GTT, mice were injected with compound subcutaneously 16 h before glucose injection; food was removed at the same time. For 24 h GTT, mice were injected with compound subcutaneously 24 h before glucose injection; food was removed 5-6 h before glucose injection. 20% glucose in water was prepared; the solution was sterilized by 0.2 μm-filtration. An intraperitoneal injection of glucose (2 g/kg) was given to the mouse. Continued to take blood samples from the tail. Blood glucose was measured at 10, 20, 30, 40, 60, 90, and 120 minutes after glucose injection. Between each of these time points, the mouse was returned to its cage and monitored (at least 6 replicate mice were used for each time-point). The average glucose measurements were plotted as a function of time and the area under the curve (AUC) was determined.

[3] = molecular target: T2, GIP-R (Homo sapiens, UniProt P48546); test: HitHunter cAMP assay (GIP-R); assay type: cell-based; conditions: cAMP; for Emax: read-out: (Emax) GIP-R; for EC50: read-out: EC50 GIP-R/nM
T2 sequence (P48546 22-466): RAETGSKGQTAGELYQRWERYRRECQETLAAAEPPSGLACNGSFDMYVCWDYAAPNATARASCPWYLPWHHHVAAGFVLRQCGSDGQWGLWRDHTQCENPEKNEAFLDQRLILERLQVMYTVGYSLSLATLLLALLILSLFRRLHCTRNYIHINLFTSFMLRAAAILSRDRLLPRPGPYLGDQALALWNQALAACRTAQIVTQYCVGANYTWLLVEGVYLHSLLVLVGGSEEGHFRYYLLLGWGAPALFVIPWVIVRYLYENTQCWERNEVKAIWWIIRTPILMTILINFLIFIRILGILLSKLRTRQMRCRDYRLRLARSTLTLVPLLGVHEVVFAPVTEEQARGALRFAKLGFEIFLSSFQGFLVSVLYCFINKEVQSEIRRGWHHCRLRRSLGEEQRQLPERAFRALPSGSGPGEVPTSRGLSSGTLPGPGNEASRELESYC
Outline: as §1

[4] = molecular target: T1, GLP-1R; test: PathHunter β-arrestin assay; assay type: cell-based; conditions: PathHunter β-arrestin assay; read-out: β-arrestin activity EC50
Outline: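 Following a 90 min agonist exposure at 37 °C in 0.2% BSA medium, β-arrestin coupling was detected by chemiluminescence after 3 h at room temperature.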

T1 sequence (P43220 24-463): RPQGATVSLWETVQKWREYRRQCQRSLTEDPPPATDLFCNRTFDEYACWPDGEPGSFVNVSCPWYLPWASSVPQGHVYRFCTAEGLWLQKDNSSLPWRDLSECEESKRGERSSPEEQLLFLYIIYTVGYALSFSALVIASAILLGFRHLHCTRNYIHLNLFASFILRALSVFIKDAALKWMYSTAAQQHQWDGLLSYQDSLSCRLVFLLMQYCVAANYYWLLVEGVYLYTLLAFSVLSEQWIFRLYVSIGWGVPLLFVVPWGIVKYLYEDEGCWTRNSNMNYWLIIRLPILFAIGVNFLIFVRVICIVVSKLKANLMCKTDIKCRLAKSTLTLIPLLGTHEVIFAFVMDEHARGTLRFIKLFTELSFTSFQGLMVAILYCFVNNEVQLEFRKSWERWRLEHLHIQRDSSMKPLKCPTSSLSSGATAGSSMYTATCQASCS

SMILES | Emax ([1]; Table 3) | EC50 ([1]; Table 3) | Emax ([1]; Table 3A) | EC50 ([1]; Table 3A) | AUC score [2] | Emax ([3]; Table 3) | EC50 ([3]; Table 3) | Emax ([3]; Table 3A) | EC50 ([3]; Table 3A) | EC50 [4]
CCCCCCCCCCCCCCCC(=O)N[C@@H](CCC(=O)NCCCC[C@H](NC(=O)[C@H](CO)NC(=O)[C@@H]1CCCN1C(=O)[C@@H]1CCCN1C(=O)[C@@H]1CCCN1C(=O)[C@H](C)NC(=O)CNC(=O)[C@H](CO)NC(=O)[C@H](CO)NC(=O)[C@@H]1CCCN1C(=O)CNC(=O)CNC(=O)[C@H](C)NC(=O)[C@H](CC(C)C)NC(=O)[C@H](CC(C)C)NC(=O)[C@H](Cc1c[nH]c2ccccc12)NC(=O)[C@H](CC(N)=O)NC(=O)[C@@H](NC(=O)[C@H](Cc1ccccc1)NC(=O)[C@H](CCC(=O)O)NC(=O)C(C)(C)NC(=O)[C@H](C)NC(=O)[C@H](C)NC(=O)[C@H](CCC(N)=O)NC(=O)[C@H](CCCCN)NC(=O)[C@H](CC(=O)O)NC(=O)[C@H](CC(C)C)NC(=O)[C@H](Cc1ccc(O)cc1)NC(=O)[C@@H](NC(=O)[C@H](CO)NC(=O)[C@H](Cc1ccc(O)cc1)NC(=O)[C@H](CC(=O)O)NC(=O)[C@H](CO)NC(=O)[C@@H](NC(=O)[C@H](Cc1ccccc1)NC(=O)[C@@H](NC(=O)CNC(=O)[C@H](CCC(=O)O)NC(=O)CCCNC(=O)CN1CCCCC1=O)[C@@H](C)O)[C@@H](C)O)[C@@H](C)CC)C(C)C)C(N)=O)C(=O)O [Compound 16] | 97% | < 0.1 nM | 97% | < 0.1 nM | 2 (AUC score 2 = 26-50%) | 22% | 1 to 10 nM | 22% | 10 to 100 nM | < 10 nM
CCCCCCCCCCCCCCCC(=O)N[C@@H](CCC(=O)NCCCC[C@H](NC(=O)[C@H](CO)NC(=O)[C@@H]1CCCN1C(=O)[C@@H]1CCCN1C(=O)[C@@H]1CCCN1C(=O)[C@H](C)NC(=O)CNC(=O)[C@H](CO)NC(=O)[C@H](CO)NC(=O)[C@@H]1CCCN1C(=O)CNC(=O)CNC(=O)[C@H](C)NC(=O)[C@H](CC(C)C)NC(=O)[C@H](CC(C)C)NC(=O)[C@H](Cc1c[nH]c2ccccc12)NC(=O)[C@H](CC(N)=O)NC(=O)[C@@H](NC(=O)[C@H](Cc1ccccc1)NC(=O)[C@H](CCC(=O)O)NC(=O)C(C)(C)NC(=O)[C@H](C)NC(=O)[C@H](C)NC(=O)[C@H](CCC(N)=O)NC(=O)[C@H](CCCCN)NC(=O)[C@H](CC(=O)O)NC(=O)[C@H](CC(C)C)NC(=O)[C@H](Cc1ccc(O)cc1)NC(=O)[C@@H](NC(=O)[C@H](CO)NC(=O)[C@H](Cc1ccc(O)cc1)NC(=O)[C@H](CC(=O)O)NC(=O)[C@H](CO)NC(=O)[C@@H](NC(=O)[C@H](Cc1ccccc1)NC(=O)[C@@H](NC(=O)CNC(=O)[C@H](CCC(=O)O)NC(=O)CSCC(=O)NCCN1C(=O)COC1=O)[C@@H](C)O)[C@@H](C)O)[C@@H](C)CC)C(C)C)C(N)=O)C(=O)O [Compound 59] | 108% | < 0.1 nM | 108% | < 0.1 nM | 3 (AUC score 3 = 51-75%) | 31% | 1 to 10 nM | 31% | 1 to 10 nM | –
CC[C@H](C)[C@H](NC(=O)[C@H](CO)NC(=O)[C@H](Cc1ccc(O)cc1)NC(=O)[C@H](CC(=O)O)NC(=O)[C@H](CO)NC(=O)[C@@H](NC(=O)[C@H](Cc1ccccc1)NC(=O)[C@@H](NC(=O)CNC(=O)[C@H](CCC(=O)O)NC(=O)C1(C(=O)NCCN2C(=O)CSC2=O)CC1)[C@@H](C)O)[C@@H](C)O)C(=O)N[C@@H](Cc1ccc(O)cc1)C(=O)N[C@@H](CC(C)C)C(=O)N[C@@H](CC(=O)O)C(=O)N[C@@H](CCCCN)C(=O)N[C@@H](CCC(N)=O)C(=O)N[C@@H](C)C(=O)N[C@@H](C)C(=O)NC(C)(C)C(=O)N[C@@H](CCC(=O)O)C(=O)N[C@@H](Cc1ccccc1)C(=O)N[C@H](C(=O)N[C@@H](CC(N)=O)C(=O)N[C@@H](Cc1c[nH]c2ccccc12)C(=O)N[C@@H](CC(C)C)C(=O)N[C@@H](CC(C)C)C(=O)N[C@@H](C)C(=O)NCC(=O)NCC(=O)N1CCC[C@H]1C(=O)N[C@@H](CO)C(=O)N[C@@H](CO)C(=O)NCC(=O)N[C@@H](C)C(=O)N1CCC[C@H]1C(=O)N1CCC[C@H]1C(=O)N1CCC[C@H]1C(=O)N[C@@H](CO)C(=O)N[C@@H](CCCCN)C(N)=O)C(C)C [Compound 135] | 106 to 111% | < 1 nM | 106 to 111% | < 1 nM | – | 15 to 22% | 10 to 100 nM | 15 to 22% | 10 to 1000 nM | > 1000 nM
